According to patent US12590099B2, “Inhibitors of histone deacetylase useful for the treatment or prevention of HIV infection” (Merck Sharp & Dohme LLC, priority 2018, dated 2026):
Like-named read-outs stand apart in the source and are kept apart here.

Columns and labels:
Recombinant human HDAC1 = biological target: T1, Recombinant human HDAC1 (Homo sapiens, UniProt Q13547); assay: Human HDAC enzyme inhibitor Fluor-de-Lys assay, HDAC1; format: biochemical; conditions: recombinant human HDAC1, Fluor-de-Lys assay
T1 construct: FLAG (C); made in house
In short: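 Fluor-de-Lys format at room temperature (23° C.): compounds titrated 10-point, 1:3, preincubated with HDAC before substrate addition; HDAC1 run at 0.3 nM enzyme with 20 μM BML-KI104. Developer with excess HDAC inhibitor ends the reaction, and trypsin-liberated AMC fluorescence is the read-out.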

Recombinant human HDAC2 = biological target: T2, Recombinant human HDAC2 (Homo sapiens, UniProt Q92769); assay: Human HDAC enzyme inhibitor Fluor-de-Lys assay, HDAC2; format: biochemical; conditions: recombinant human HDAC2, Fluor-de-Lys assay
T2 construct: Full length human HDAC2-FLAG was expressed in baculovirus infected Sf9 cells; FLAG (C); made in house; host or cells: Sf9 (baculovirus)
In short: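 Fluor-de-Lys format at room temperature (23° C.): compounds titrated 10-point, 1:3, preincubated with HDAC before substrate addition. Developer with excess HDAC inhibitor ends the reaction, and trypsin-liberated AMC fluorescence is the read-out.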

Recombinant human HDAC8 = biological target: T3, Recombinant human HDAC8 (Homo sapiens, UniProt Q9BY41); assay: Human HDAC enzyme inhibitor Fluor-de-Lys assay, HDAC8; format: biochemical; conditions: recombinant human HDAC8, Fluor-de-Lys assay
T3 construct: purchased Enzo Life Sciences BML-SE145-0100
T3 sequence (Q9BY41 1-377): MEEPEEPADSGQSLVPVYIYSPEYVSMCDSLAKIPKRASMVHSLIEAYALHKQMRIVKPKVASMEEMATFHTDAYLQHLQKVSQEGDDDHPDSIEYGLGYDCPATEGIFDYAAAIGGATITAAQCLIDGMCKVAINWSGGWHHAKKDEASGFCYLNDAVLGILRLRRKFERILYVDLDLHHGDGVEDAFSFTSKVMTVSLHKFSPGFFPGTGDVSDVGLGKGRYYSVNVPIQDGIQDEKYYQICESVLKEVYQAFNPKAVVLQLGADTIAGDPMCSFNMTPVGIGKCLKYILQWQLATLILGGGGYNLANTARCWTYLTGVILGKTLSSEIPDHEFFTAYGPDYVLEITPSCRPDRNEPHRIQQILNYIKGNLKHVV

KARN cells (Jurkat 2C4) = assay: cells; format: cell-based; conditions: Homo sapiens, Jurkat, luciferase induction, 100% = 2 μM SAHA
In short: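 Luminescence (Steady-Glo, 10 min, room temperature) measured next day in KARN Jurkat 2C4 cells given compounds at up to 40 μM final with 0.4% DMSO. Percent activation normalised to DMSO (0%) and 2 μM SAHA (100%), fitted by 4-parameter curve.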

[1] = read-out: Karn EC50 (nM) 0.1% NHS, 0.1% normal human serum
[2] = read-out: Karn EC50 (nM) 5% NHS, 5% normal human serum

T2 sequence (Q92769 whole entry): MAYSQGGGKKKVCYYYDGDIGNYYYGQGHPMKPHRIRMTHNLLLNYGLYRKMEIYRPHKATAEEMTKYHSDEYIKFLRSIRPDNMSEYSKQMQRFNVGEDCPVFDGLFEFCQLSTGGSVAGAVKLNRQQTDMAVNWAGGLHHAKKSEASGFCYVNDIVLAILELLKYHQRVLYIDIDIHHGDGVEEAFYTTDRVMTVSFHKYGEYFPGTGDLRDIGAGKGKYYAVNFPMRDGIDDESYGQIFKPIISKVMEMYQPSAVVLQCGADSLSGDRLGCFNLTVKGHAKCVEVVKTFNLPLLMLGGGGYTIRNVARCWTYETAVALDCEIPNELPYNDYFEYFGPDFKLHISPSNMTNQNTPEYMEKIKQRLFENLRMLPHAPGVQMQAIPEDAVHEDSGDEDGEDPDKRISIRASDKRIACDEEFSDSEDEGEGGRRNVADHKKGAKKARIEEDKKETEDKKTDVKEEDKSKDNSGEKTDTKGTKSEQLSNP
T1 sequence (Q13547 whole entry): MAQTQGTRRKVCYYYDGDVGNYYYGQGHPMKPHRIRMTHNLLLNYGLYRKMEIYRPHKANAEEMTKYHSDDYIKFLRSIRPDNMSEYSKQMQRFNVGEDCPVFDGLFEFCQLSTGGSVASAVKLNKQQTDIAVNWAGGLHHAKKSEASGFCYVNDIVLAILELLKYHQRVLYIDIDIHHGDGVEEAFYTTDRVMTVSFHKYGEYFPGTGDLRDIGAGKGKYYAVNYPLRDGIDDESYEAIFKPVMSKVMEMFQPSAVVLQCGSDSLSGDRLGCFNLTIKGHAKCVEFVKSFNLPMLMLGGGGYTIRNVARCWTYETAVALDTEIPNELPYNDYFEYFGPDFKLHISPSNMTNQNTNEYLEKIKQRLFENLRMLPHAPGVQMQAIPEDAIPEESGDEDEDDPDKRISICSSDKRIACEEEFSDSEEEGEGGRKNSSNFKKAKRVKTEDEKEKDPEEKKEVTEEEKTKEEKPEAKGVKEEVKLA

SMILES | IC50 (Recombinant human HDAC1) [nM] | IC50 (Recombinant human HDAC2) [nM] | IC50 (Recombinant human HDAC8) [nM] | EC50 (KARN cells (Jurkat 2C4); [1]) [nM] | EC50 (KARN cells (Jurkat 2C4); [2]) [nM]
CCC(=O)CCCCC[C@H](NCC1CC1)c1ncc(-c2cc3ccc(C)nc3cc2OC)[nH]1 [Compound 398, (S)-9-((cyclopropylmethyl)amino)-9-(5-(7-methoxy-2-methylquinolin-6-yl)-1H-imidazol-2-yl)nonan-3-one] | 186 | 810 | > 900 | 5500 | 10200
CCC(=O)CCCCC[C@H](NC(=O)[C@H]1CC12CCN(CC1CC1)CC2)c1ncc(-c2cc3ccc(=O)n(C)c3cc2F)o1 [Compound 400] | 6.41 | 39.7 | > 900 | 577 | 557
CCC(=O)CCCCC[C@H](NCC1CN(C)C1)c1ncc(-c2cc3ccc(C)nc3cc2OC)o1 [Compound 401, (9S)-9-[5-(7-methoxy-2-methylquinolin-6-yl)-1,3-oxazol-2-yl]-9-{[(1-methylazetidin-3-yl)methyl]amino}nonan-3-one] | 32.1 | 179 | > 900 | 1840 | 2210
CCN[C@@H](CCCCCC(=O)CC)c1ncc(-c2cc3ccc(C)nc3cc2OC)[nH]1 [Compound 403] | 248 | > 900 | > 900 | 5340 | 5600
CCC(=O)CCCCC[C@H](NCc1ccncc1)c1ncc(-c2cc3ccc(C)nc3cc2OC)[nH]1 [Compound 404] | 367 | > 900 | > 900 | > 40000 | > 40000
CCC(=O)CCCCC[C@H](NC(=O)[C@H]1CC12CCN(C)CC2)c1ncc(-c2cc3ccncc3cc2OC)o1 [Compound 405] | 0.3 | 2 | > 900 | 65 | 57
CCC(=O)CCCCC[C@H](NC(=O)[C@H]1CC12CCN(C)CC2)c1ncc(-c2cc3ccc(N(C)C)nc3cc2OC)o1 [Compound 406] | 0.83 | 2.5 | 300 | 280 | 279
CCC(=O)CCCCC[C@H](NC(=O)[C@H]1CC12CCN(C)CC2)c1ncc(-c2cc3ocnc3cc2OC)o1 [Compound 408] | 3.82 | 36.1 | > 900 | 250 | 593
CCC(=O)CCCCCC(N)(COC)c1ncc(-c2cc3ccc(C)nc3cc2OC)[nH]1 (stereo not shown) [Compound 414, 9-amino-10-methoxy-9-[5-(7-methoxy-2-methylquinolin-6-yl)-1H-imidazol-2-yl]decan-3-one] | > 900 | > 900 | > 900 | > 40000 | > 40000
CCC(=O)CCCCC[C@H](NC(=O)C1=NOC2(CCN(C)CC2)C1)c1ncc(-c2cc3ccncc3cc2OC)o1 [Compound 415] | 3.31 | 33.1 | > 900 | 105 | 118
CCCC(=O)CCCCC[C@H](NC(=O)[C@H]1CC12CCN(CC1CC1)CC2)c1ncc(-c2cc3ccc(C)nc3cc2OC)[nH]1 [Compound 416] | < 1.58 | 4.5 | > 900 | 11 | 15
CCC(=O)CCCCCC(CC)(NC(=O)[C@H]1CC12CCN(CC1CC1)CC2)c1nc(-c2cc3ccc(C)nc3cc2OC)c[nH]1 (stereo partly drawn) [Compound 420, (1S)-6-(cyclopropylmethyl)-N-{3-[4-(7-methoxy-2-methylquinolin-6-yl)-1H-imidazol-2-yl]-9-oxoundecan-3-yl}-6-azaspiro[2.5]octane-1-carboxamide] | 484 | 330 | > 900 | 11800 | > 40000
CCC(=O)CCCCC[C@H](NC(=O)[C@H]1CC12CCN(CC1CC1)CC2)c1ncc(-c2cc3ccc(C)nc3cc2OC)o1 [Compound 422] | 0.17 | 0.7 | > 900 | 15 | 10
CCCC(=O)CCCCC[C@H](N)c1ncc(-c2cc3ccc(C)nc3cc2OC)[nH]1 [Compound A30] | 60.6 | 304 | 542 | 1490 | 5610
